#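 Cultured in 96-well plates, cells were exposed to test compound for 48 hours across five concentrations. GI50: concentration for 50% inhibition of growth. The concentration for full growth arrest is given as TGI.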
# Legend:
# Assay in all cases: DTP human tumour cell line panel, 48 h
# MDA-MB-435 = tested on: MDA-MB-435
# IGROV1 ovarian = tested on: IGROV1 ovarian
# OVCAR-4 ovarian = tested on: OVCAR-4 ovarian
# M14 melanoma = tested on: M14 melanoma
# HOP-62 NSCLC = tested on: HOP-62 NSCLC
# HOP-92 NSCLC = tested on: HOP-92 NSCLC
# HL-60(TB) leukemia = tested on: HL-60(TB) leukemia
# OVCAR-8 ovarian = tested on: OVCAR-8 ovarian
# K-562 leukemia = tested on: K-562 leukemia
# HS 578T breast = tested on: HS 578T breast
# NCI-H226 lung = tested on: NCI-H226 lung
# HCT-15 colon = tested on: HCT-15 colon
# TK-10 renal = tested on: TK-10 renal
# KM12 colon = tested on: KM12 colon
# HCC-2998 colon = tested on: HCC-2998 colon
# NCI-H23 lung = tested on: NCI-H23 lung
# DU-145 prostate = tested on: DU-145 prostate
# UACC-257 melanoma = tested on: UACC-257 melanoma
# RPMI-8226 leukemia = tested on: RPMI-8226 leukemia
# SN12C renal = tested on: SN12C renal
# SF-268 CNS = tested on: SF-268 CNS
# U251 CNS = tested on: U251 CNS
# MALME-3M melanoma = tested on: MALME-3M melanoma
# SK-MEL-2 melanoma = tested on: SK-MEL-2 melanoma
# HCT-116 colon = tested on: HCT-116 colon
# SF-295 CNS = tested on: SF-295 CNS
# BT-549 breast = tested on: BT-549 breast
# MOLT-4 leukemia = tested on: MOLT-4 leukemia
# SW-620 colon = tested on: SW-620 colon
# LOX IMVI melanoma = tested on: LOX IMVI melanoma
# SK-MEL-5 melanoma = tested on: SK-MEL-5 melanoma
# ACHN renal = tested on: ACHN renal
# A549 NSCLC = tested on: A549 NSCLC
# NCI-H522 lung = tested on: NCI-H522 lung
# SR leukemia = tested on: SR leukemia
# SNB-19 CNS = tested on: SNB-19 CNS
# RXF 393 renal = tested on: RXF 393 renal
# A498 renal = tested on: A498 renal
# NCI-H460 lung = tested on: NCI-H460 lung
# OVCAR-5 ovarian = tested on: OVCAR-5 ovarian
# NCI/ADR-RES ovarian = tested on: NCI/ADR-RES ovarian
# HT29 colon = tested on: HT29 colon
# SF-539 CNS = tested on: SF-539 CNS
# SNB-75 CNS = tested on: SNB-75 CNS
# UACC-62 melanoma = tested on: UACC-62 melanoma
# CAKI-1 renal = tested on: CAKI-1 renal
# EKVX NSCLC = tested on: EKVX NSCLC
# MCF7 breast = tested on: MCF7 breast
# 786-0 renal = tested on: 786-0 renal
# MDA-MB-231 breast = tested on: MDA-MB-231 breast
# SK-OV-3 ovarian = tested on: SK-OV-3 ovarian
# T-47D breast = tested on: T-47D breast
# PC-3 prostate = tested on: PC-3 prostate
# COLO 205 colon = tested on: COLO 205 colon
# CCRF-CEM leukemia = tested on: CCRF-CEM leukemia
# UO-31 renal = tested on: UO-31 renal
# SK-MEL-28 melanoma = tested on: SK-MEL-28 melanoma
smiles,measurement,setting,value
NC(=S)n1c(=O)n(-c2cccc(C(F)(F)F)c2)c(=O)c2cc(-c3ccc(F)cc3F)ccc21,GI50,MDA-MB-435,1560 nM
same,TGI,MDA-MB-435,5460 nM
same,GI50,IGROV1 ovarian,1990 nM
same,TGI,IGROV1 ovarian,13000 nM
same,GI50,OVCAR-4 ovarian,2390 nM
same,TGI,OVCAR-4 ovarian,22500 nM
same,GI50,M14 melanoma,1600 nM
same,TGI,M14 melanoma,4230 nM
same,GI50,HOP-62 NSCLC,1830 nM
same,TGI,HOP-62 NSCLC,4440 nM
same,GI50,HOP-92 NSCLC,191 nM
same,TGI,HOP-92 NSCLC,741 nM
same,GI50,HL-60(TB) leukemia,1600 nM
same,TGI,HL-60(TB) leukemia,7260 nM
same,GI50,OVCAR-8 ovarian,1290 nM
same,TGI,OVCAR-8 ovarian,6480 nM
same,GI50,K-562 leukemia,725 nM
same,TGI,K-562 leukemia,14100 nM
same,GI50,HS 578T breast,1110 nM
same,TGI,HS 578T breast,4450 nM
same,GI50,NCI-H226 lung,1420 nM
same,TGI,NCI-H226 lung,3890 nM
same,GI50,HCT-15 colon,769 nM
same,TGI,HCT-15 colon,2690 nM
same,GI50,TK-10 renal,4050 nM
same,TGI,TK-10 renal,8470 nM
same,GI50,KM12 colon,2260 nM
same,TGI,KM12 colon,6210 nM
same,GI50,HCC-2998 colon,2960 nM
same,TGI,HCC-2998 colon,9270 nM
same,GI50,NCI-H23 lung,1180 nM
same,TGI,NCI-H23 lung,5100 nM
same,GI50,DU-145 prostate,2740 nM
same,TGI,DU-145 prostate,13700 nM
same,GI50,UACC-257 melanoma,1070 nM
same,TGI,UACC-257 melanoma,4000 nM
same,GI50,RPMI-8226 leukemia,575 nM
same,TGI,RPMI-8226 leukemia,3110 nM
same,GI50,SN12C renal,1260 nM
same,TGI,SN12C renal,6300 nM
same,GI50,SF-268 CNS,2000 nM
same,TGI,SF-268 CNS,11300 nM
same,GI50,U251 CNS,1740 nM
same,TGI,U251 CNS,9310 nM
same,GI50,MALME-3M melanoma,1510 nM
same,TGI,MALME-3M melanoma,4950 nM
same,GI50,SK-MEL-2 melanoma,590 nM
same,TGI,SK-MEL-2 melanoma,2350 nM
same,GI50,HCT-116 colon,953 nM
same,TGI,HCT-116 colon,2300 nM
same,GI50,SF-295 CNS,1750 nM
same,TGI,SF-295 CNS,3620 nM
same,GI50,BT-549 breast,1180 nM
same,TGI,BT-549 breast,2620 nM
same,GI50,MOLT-4 leukemia,1660 nM
same,TGI,MOLT-4 leukemia,4840 nM
same,GI50,SW-620 colon,1600 nM
same,TGI,SW-620 colon,4200 nM
same,GI50,LOX IMVI melanoma,1540 nM
same,TGI,LOX IMVI melanoma,3170 nM
same,GI50,SK-MEL-5 melanoma,333 nM
same,TGI,SK-MEL-5 melanoma,1140 nM
same,GI50,ACHN renal,2270 nM
same,TGI,ACHN renal,10500 nM
same,GI50,A549 NSCLC,2730 nM
same,TGI,A549 NSCLC,11300 nM
same,GI50,NCI-H522 lung,428 nM
same,TGI,NCI-H522 lung,2870 nM
same,GI50,SR leukemia,984 nM
same,TGI,SR leukemia,5150 nM
same,GI50,SNB-19 CNS,1290 nM
same,TGI,SNB-19 CNS,22900 nM
same,GI50,RXF 393 renal,1220 nM
same,TGI,RXF 393 renal,3090 nM
same,GI50,A498 renal,341 nM
same,TGI,A498 renal,1220 nM
same,GI50,NCI-H460 lung,763 nM
same,TGI,NCI-H460 lung,5410 nM
same,GI50,OVCAR-5 ovarian,3540 nM
same,TGI,OVCAR-5 ovarian,17500 nM
same,GI50,NCI/ADR-RES ovarian,1970 nM
same,TGI,NCI/ADR-RES ovarian,9410 nM
same,GI50,HT29 colon,3340 nM
same,TGI,HT29 colon,11900 nM
same,GI50,SF-539 CNS,1920 nM
same,TGI,SF-539 CNS,8790 nM
same,GI50,SNB-75 CNS,1500 nM
same,TGI,SNB-75 CNS,5170 nM
same,GI50,UACC-62 melanoma,379 nM
same,TGI,UACC-62 melanoma,1610 nM
same,GI50,CAKI-1 renal,1610 nM
same,TGI,CAKI-1 renal,5860 nM
same,GI50,EKVX NSCLC,2390 nM
same,TGI,EKVX NSCLC,7950 nM
same,GI50,MCF7 breast,1700 nM
same,TGI,MCF7 breast,8180 nM
same,GI50,786-0 renal,2000 nM
same,TGI,786-0 renal,4390 nM
same,GI50,MDA-MB-231 breast,1820 nM
same,TGI,MDA-MB-231 breast,5950 nM
same,GI50,SK-OV-3 ovarian,1210 nM
same,TGI,SK-OV-3 ovarian,3600 nM
same,GI50,T-47D breast,1540 nM
same,TGI,T-47D breast,6090 nM
same,GI50,PC-3 prostate,1050 nM
same,TGI,PC-3 prostate,4110 nM
same,GI50,COLO 205 colon,1760 nM
same,TGI,COLO 205 colon,3360 nM
same,GI50,CCRF-CEM leukemia,2270 nM
same,TGI,CCRF-CEM leukemia,11500 nM
same,GI50,UO-31 renal,2300 nM
same,TGI,UO-31 renal,8580 nM
same,GI50,SK-MEL-28 melanoma,1430 nM
same,TGI,SK-MEL-28 melanoma,6240 nM
